# Measurements published in patent publication US20110251212A1, “PIPERAZINE DERIVATIVES” (SHIONOGI & CO., LTD., priority 2007, published 2011).
# How the values were obtained:
# [1] = target: T1, mouse NMDA receptor (NR1 subunit and NR2B subunit co-expressed in HEK293 cells) (Mus musculus, UniProt P35438+Q01097); experiment: Expression of NMDA receptor and measurement of Ca ion flow in amount (HEK293 cells, Fluo-3/AM, FDSS3000); type: cell-based; conditions: Ca ion flow in induced with glutamic acid 20 μM/glycine 2 μM, read-out: Ca2+ 1050
# T1 construct: expressed in transfected cells; host or cells: HEK293 cells, transient, pcDNA 3.1 plasmids
# Protocol: Test Example 2 Expression of NMDA receptor and measurement of Ca ion flow in amount
# A complementary DNA (cDNA) of a mouse NMDA receptor subunit was transiently introduced into HEK293 cells and, after one day from introduction, change in a glutamic acid/glycine-induced intracellular Ca amount was measured using a Ca ion reactive fluorescent dye.
# HEK293 cells were cultured and passaged using a modified Dulbecco's Eagle medium (DMEM, low glucose).
# 20,000/well of HEK293 cells were seeded on a 96-well plate, a NR1 subunit and a NR2B subunit of a NMDA receptor incorporated into pcDNA 3.1 plasmid were transiently introduced into cells, and co-expression of subunits was performed. An introduction amount of a DNA was such that the NR1 subunit was 0.025 μg, and the NR2B subunit was 0.075 μg per well. For cells after introduction, cell death was inhibited using 50 μM of a NMDA receptor antagonist MK-801.
# For adjusting a test compound and washing cells, Krebs Ringer Hepes buffer (KRH, Ca: 5 mM) was used.
# One day after introduction, the NMDA receptor antagonist MK-801 was washed off using the KRH buffer, and a Ca ion indicative fluorescent dye Fluo-3/AM was made to be taken into cells. Flow in of a Ca ion was induced with glutamic acid 20 μM/glycine 2 μM. Change in a fluorescence amount due to intracellular Ca ion flow in was measured at excitation 480 nm using a fluorescence imaging system FDSS3000.
# From a measured value of the test compound, a Ca ion flow in inhibitory rate (%) was obtained by the following equation, and a dose at which flow in is 50% inhibited (IC50) was calculated.
# Ca ion flow in inhibitory rate(%)=100−[(fluorescence amount in presence of test compound−background fluorescence amount)/(total fluorescence amount[…]background fluorescence amount)]×100
# [2] = target: T2, NMDA Receptor (NR1/NR2B Receptor) (Rattus norvegicus, UniProt P35439+Q00960); experiment: Experiment of binding to NMDA receptor (NR1/NR2B receptor), [3H]-Ifenprodil competition, rat cerebral cortex membrane; conditions: [3H]-Ifenprodil 5 nM, GBR-12909 3 μM, ice temperature 120 minutes
# T2 construct: this was used as a membrane specimen in an experiment; from tissue; host or cells: rat cerebral cortex membranes
# Protocol: Using Ifenprodil which is a NR1/NR2B subtype receptor-specific antagonist as a ligand, an experiment of receptor competition with a test compound was performed.
# A male Slc:Wistar rat was used as an animal, a decapitated brain was isolated, and cerebral cortex was fractionated. The cerebral cortex was homogenized with a 20-fold amount of an ice-cooled 50 mM Tris/HCl buffer (pH 7.4), and centrifuged at 4° C. and 27,500×g for 10 minutes. The resulting precipitate was suspended in the same buffer, and the suspension was centrifuged again. This procedure was repeated three times, and the resulting precipitate was suspended in a buffer, and stored at −80° C. Immediately before an experiment, the frozen suspension was thawed at room temperature, and centrifuged at 4° C. and 27,500×g for 10 minutes, and the resulting precipitate was suspended in a buffer. The suspension was further diluted 10-fold with a buffer, and this was used as a membrane specimen in an experiment.
# In a binding experiment, to 470 μl of the membrane specimen were added 10 μl of different concentrations of a test compound, 10 μl of a labeled ligand [3H]-Ifenprodil and 10 μl of GBR-12909, and this was incubated at an ice temperature for 120 minutes. A concentration of [3H]-Ifenprodil of the labeled ligand was finally 5 nM, and a concentration of GBR-12909 was finally 3 μM. For measuring a total binding amount, DMSO as a solvent was used and, for measuring a non-specific binding amount, 100 μM of Ifenprodil was used. In addition, GBR-12909 was added in order to block binding of [3H]-Ifenprodil to a non-polyamine-sensitive site. After incubation, a bound body and a free body were separated using a Whatman GF/C filter (manufactured by Whatman), and the filter was washed with 2.5 ml of an ice-cooled buffer four times. The filter was immersed in a liquid scintillation (Clear-sol I, manufactured by Nacalai tesque) in a vial bottle, and radioactivity (dpm) was measured with a liquid scintillation counter. From a measured value, a binding inhibition rate (%) was obtained by the following equation, and a dose at which binding is inhibited 50% (IC50) was calculated. A formula of GBR-12909 (Vanoxerine) is shown below.
# Binding inhibition rate(%)=100−[(binding amount in presence of test compound−non-specific amount)/(total binding amount−non-specific binding amount)]×100
# T1 sequence (Q01097 27-1482, other chains not shown): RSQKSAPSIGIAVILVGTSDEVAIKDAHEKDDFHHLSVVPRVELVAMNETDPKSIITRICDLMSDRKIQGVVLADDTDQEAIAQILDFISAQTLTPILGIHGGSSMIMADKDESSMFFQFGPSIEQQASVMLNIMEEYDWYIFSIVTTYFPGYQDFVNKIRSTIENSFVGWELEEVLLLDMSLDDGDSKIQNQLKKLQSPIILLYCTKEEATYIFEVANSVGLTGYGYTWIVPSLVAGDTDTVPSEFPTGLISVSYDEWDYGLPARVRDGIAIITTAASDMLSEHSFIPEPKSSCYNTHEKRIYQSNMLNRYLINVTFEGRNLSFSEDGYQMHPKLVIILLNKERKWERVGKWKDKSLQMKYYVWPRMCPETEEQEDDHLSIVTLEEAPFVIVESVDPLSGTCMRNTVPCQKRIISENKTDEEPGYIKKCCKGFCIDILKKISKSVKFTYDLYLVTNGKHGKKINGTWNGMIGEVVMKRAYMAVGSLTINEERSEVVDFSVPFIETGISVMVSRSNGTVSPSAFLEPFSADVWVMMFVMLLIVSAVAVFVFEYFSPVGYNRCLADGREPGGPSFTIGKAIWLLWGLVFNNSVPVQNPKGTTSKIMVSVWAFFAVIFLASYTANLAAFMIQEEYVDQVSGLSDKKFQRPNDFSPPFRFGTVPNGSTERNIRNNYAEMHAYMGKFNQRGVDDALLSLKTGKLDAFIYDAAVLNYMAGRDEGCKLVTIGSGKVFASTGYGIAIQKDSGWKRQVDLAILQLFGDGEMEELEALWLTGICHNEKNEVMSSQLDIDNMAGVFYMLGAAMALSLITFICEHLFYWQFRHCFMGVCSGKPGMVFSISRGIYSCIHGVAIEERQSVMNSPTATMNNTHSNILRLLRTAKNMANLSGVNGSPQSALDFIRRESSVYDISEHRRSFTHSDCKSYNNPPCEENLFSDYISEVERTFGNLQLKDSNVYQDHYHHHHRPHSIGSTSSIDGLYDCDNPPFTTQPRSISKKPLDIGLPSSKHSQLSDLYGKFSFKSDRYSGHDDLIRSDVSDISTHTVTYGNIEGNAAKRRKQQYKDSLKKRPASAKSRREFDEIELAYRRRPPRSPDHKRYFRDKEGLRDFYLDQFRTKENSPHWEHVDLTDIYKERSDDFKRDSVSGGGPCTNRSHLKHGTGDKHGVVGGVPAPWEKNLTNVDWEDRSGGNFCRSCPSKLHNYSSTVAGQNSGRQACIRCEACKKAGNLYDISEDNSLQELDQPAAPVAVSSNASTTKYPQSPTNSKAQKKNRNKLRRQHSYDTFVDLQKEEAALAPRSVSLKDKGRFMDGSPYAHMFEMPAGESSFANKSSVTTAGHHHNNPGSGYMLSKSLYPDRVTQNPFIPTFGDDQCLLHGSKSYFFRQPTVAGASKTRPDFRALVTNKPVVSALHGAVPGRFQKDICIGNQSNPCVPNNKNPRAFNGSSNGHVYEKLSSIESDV
# T2 sequence (Q00960 27-1482, other chains not shown): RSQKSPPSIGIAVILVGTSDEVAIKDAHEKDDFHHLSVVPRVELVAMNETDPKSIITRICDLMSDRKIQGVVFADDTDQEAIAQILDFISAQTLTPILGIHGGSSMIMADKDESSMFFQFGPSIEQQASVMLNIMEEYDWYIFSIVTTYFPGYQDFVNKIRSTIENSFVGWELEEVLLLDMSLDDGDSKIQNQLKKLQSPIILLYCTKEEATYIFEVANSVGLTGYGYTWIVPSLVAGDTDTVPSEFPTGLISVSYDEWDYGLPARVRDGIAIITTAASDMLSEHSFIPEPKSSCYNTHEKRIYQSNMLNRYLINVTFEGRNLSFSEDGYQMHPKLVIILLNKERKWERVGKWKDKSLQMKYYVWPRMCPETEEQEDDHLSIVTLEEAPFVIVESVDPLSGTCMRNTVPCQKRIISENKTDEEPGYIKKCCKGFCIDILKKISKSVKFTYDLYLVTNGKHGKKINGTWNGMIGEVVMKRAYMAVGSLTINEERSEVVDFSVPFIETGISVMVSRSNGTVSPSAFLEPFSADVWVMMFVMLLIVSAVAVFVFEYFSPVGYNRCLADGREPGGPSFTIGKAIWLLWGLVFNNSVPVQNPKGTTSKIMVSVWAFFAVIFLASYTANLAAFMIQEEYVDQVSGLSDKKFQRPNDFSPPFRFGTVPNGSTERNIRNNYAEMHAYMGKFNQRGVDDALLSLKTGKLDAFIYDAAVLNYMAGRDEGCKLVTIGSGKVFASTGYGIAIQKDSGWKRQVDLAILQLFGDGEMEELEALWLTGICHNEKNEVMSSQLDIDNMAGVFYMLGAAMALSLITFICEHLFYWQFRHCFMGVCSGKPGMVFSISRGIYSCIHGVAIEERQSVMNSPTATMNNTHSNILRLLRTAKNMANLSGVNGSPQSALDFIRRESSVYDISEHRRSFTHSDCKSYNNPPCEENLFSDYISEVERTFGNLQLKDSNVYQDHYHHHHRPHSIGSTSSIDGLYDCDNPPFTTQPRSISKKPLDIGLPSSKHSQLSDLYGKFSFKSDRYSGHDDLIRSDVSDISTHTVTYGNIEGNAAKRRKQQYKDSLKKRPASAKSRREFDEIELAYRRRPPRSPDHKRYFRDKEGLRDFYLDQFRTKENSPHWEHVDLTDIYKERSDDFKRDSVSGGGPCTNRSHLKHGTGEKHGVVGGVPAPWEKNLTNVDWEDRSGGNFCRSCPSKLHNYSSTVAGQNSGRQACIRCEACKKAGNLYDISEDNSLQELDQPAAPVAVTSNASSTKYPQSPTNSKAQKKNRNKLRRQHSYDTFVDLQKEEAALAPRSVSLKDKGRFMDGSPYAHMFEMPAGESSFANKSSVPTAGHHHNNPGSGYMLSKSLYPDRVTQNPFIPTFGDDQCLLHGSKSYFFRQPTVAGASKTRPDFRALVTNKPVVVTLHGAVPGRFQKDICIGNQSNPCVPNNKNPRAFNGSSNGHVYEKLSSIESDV
SMILES,IC50 [1],IC50 [2],melting point
C[C@@H]1CN(c2cc(F)cc(F)c2)CCN1C(=O)C(=O)Nc1ccc2[nH]c(=O)oc2c1 [Compound I-14],48 nM,–,–
C[C@@H]1CN(c2ccc(Cl)cc2)CCN1CC(=O)Nc1ccc2[nH]c(=O)oc2c1 [Compound I-53],33 nM,0.134 µM,–
CC(Nc1ccc2[nH]c(=O)oc2c1)C(=O)N1CCN(c2ccc(Cl)c(F)c2)CC1 (stereo not shown) [Compound I-4],–,–,223 to 225 °C
C[C@@H]1CN(c2ccc(F)cc2)C[C@H](C)N1C(=O)C(=O)Nc1ccc2[nH]c(=O)oc2c1 [Compound I-5],–,–,245 to 246 °C
O=C(NCCN1CCN(c2ccc(Cl)cc2)CC1)c1ccc2[nH]c(=O)oc2c1 [Compound I-65],10 nM,0.026 µM,–
Cc1cc(N2CCN(C(=O)C(=O)Nc3ccc4[nH]c(=O)oc4c3)[C@H](C)C2)ccc1F [Compound I-45],57 nM,–,–
CO/N=C/c1ccc(N2CCN(C(=O)C(=O)Nc3ccc4[nH]c(=O)oc4c3)[C@H](C)C2)cc1 [Compound I-31],106 nM,–,–
Cc1cc(N2CCN(CC(=O)Nc3ccc4[nH]c(=O)oc4c3)C[C@H]2C)ccc1Cl [Compound I-60],10 nM,0.08 µM,–
O=C(Nc1ccc2[nH]c(=O)oc2c1)C(=O)N1CCN(c2ccc(OCC(F)(F)F)cc2)CC1 [Compound I-21],47 nM,–,–
COCc1ccc(N2CCN(C(=O)C(=O)Nc3ccc4[nH]c(=O)oc4c3)[C@H](C)C2)cc1F [Compound I-34],32 nM,0.099 µM,–
Cc1ccc(N2CCN(C(=O)C(=O)Nc3ccc4[nH]c(=O)oc4c3)CC2)cc1 [Compound I-18],48 nM,0.107 µM,–
COCc1ccc(N2CCN(C(=O)C(=O)Nc3ccc4[nH]c(=O)oc4c3)CC2)cc1F [Compound I-33],26 nM,0.059 µM,–
COCc1ccc(N2CCN(C(=O)C(=O)Nc3ccc4[nH]c(=O)oc4c3)[C@H](C)C2)cc1 [Compound I-32],105 nM,–,–
COc1c(F)cc(N2CCN(CC(=O)Nc3ccc4[nH]c(=O)oc4c3)CC2)cc1F [Compound I-56],12 nM,0.044 µM,–
C[C@@H]1CN(c2ccc(OC(F)(F)F)cc2)CCN1C(=O)CNc1ccc2[nH]c(=O)oc2c1 [Compound I-36],–,0.071 µM,–
COCc1ccc(N2CCN(C(=O)C(=O)Nc3ccc4[nH]c(=O)oc4c3)C[C@H]2C)cc1 [Compound I-20],41 nM,–,–

SMILES,IC50 [1],IC50 [2],melting point
C[C@@H]1CN(C(=O)C(=O)Nc2ccc3[nH]c(=O)oc3c2)CCN1c1cc(F)cc(F)c1 [Compound I-13],14 nM,0.114 µM,–
Cc1ccc(N2CCN(C(=O)C(=O)Nc3ccc4[nH]c(=O)oc4c3)[C@H](C)C2)cc1 [Compound I-22],22 nM,0.085 µM,–
C[C@@H]1CN(C(=O)CNc2ccc3[nH]c(=O)oc3c2)CCN1c1ccc(Cl)cc1 [Compound I-16],12 nM,0.072 µM,–
C[C@@H]1CN(C(=O)C(=O)Nc2cnc3[nH]c(=O)oc3c2)CCN1c1ccc(OC(F)(F)F)cc1 [Compound I-25],9 nM,–,–
O=C(Nc1ccc2[nH]c(=O)oc2c1)C(=O)N1CCN(c2cc(F)cc(F)c2)CC1 [Compound I-12],108 nM,–,–
Cc1ccc(N2CCN(C(=O)C(=O)Nc3ccc4[nH]c(=O)oc4c3)C[C@H]2C)cc1 [Compound I-29],9 nM,0.129 µM,–
Cc1cc(N2CCN(C(=O)C(=O)Nc3ccc4[nH]c(=O)oc4c3)CC2)ccc1Cl [Compound I-37],9 nM,0.029 µM,–
C[C@@H]1CN(C(=O)C(=O)Nc2ccc3[nH]c(=O)oc3c2)CCN1c1ccc(OCC(F)(F)F)cc1 [Compound I-23],22 nM,–,–
C[C@@H]1CN(c2ccc(OCC(F)(F)F)cc2)CCN1C(=O)C(=O)Nc1ccc2[nH]c(=O)oc2c1 [Compound I-24],19 nM,0.105 µM,–
COc1c(F)cc(N2CCN(C(=O)CNc3ccc4[nH]c(=O)oc4c3)C[C@H]2C)cc1F [Compound I-43],21 nM,0.065 µM,–
Cc1cc(N2CCN(C(=O)C(=O)Nc3ccc4[nH]c(=O)oc4c3)C[C@H]2C)ccc1F [Compound I-49],19 nM,–,–
Cc1cc(N2CCN(C(=O)C(=O)Nc3ccc4[nH]c(=O)oc4c3)CC2)ccc1F [Compound I-46],83 nM,–,–
C[C@@H]1CN(C(=O)CNc2ccc3[nH]c(=O)oc3c2)CCN1c1ccc(OC(F)(F)F)cc1 [Compound I-30],31 nM,–,–
C[C@@H]1CN(c2ccc(F)c(Cl)c2)CCN1CC(=O)Nc1ccc2[nH]c(=O)oc2c1 [Compound I-54],52 nM,–,–
Cc1ccc(N2CCN(C(=O)C(=O)Nc3ccc4[nH]c(=O)oc4c3)CC2)cc1Cl [Compound I-35],9 nM,0.02 µM,–

# The remaining molecules from weak to strong by IC50 [1], led by results:
IC50 [1],IC50 [2],melting point,SMILES
9 nM,0.08 µM,–,Cc1ccc(N2CCN(C(=O)C(=O)Nc3ccc4[nH]c(=O)oc4c3)C[C@H]2C)cc1Cl [Compound I-39]
8 nM,0.081 µM,–,CC[C@@H]1CN(c2ccc(Cl)cc2)CCN1C(=O)C(=O)Nc1ccc2[nH]c(=O)oc2c1 [Compound I-52]
7 nM,0.031 µM,–,COc1c(F)cc(N2CCN(C(=O)CNc3ccc4[nH]c(=O)oc4c3)[C@H](C)C2)cc1F [Compound I-9]
7 nM,0.041 µM,–,Cc1ccc(N2CCN(C(=O)C(=O)Nc3ccc4[nH]c(=O)oc4c3)[C@H](C)C2)cc1Cl [Compound I-38]
7 nM,0.014 µM,–,Cc1ccc(N2CCN(C(=O)C(=O)Nc3ccc4[nH]c(=O)oc4c3)CC2)cc1F [Compound I-26]
6 nM,0.042 µM,–,C[C@@H]1CN(CC(=O)Nc2ccc3[nH]c(=O)oc3c2)CCN1c1ccc(Cl)cc1 [Compound I-59]
5 nM,0.039 µM,–,C[C@@H]1CN(c2ccc(Cl)cc2)CCN1C(=O)CNc1ccc2[nH]c(=O)oc2c1 [Compound I-15]
5 nM,0.064 µM,–,C[C@@H]1CN(C(=O)C(=O)Nc2ccc3[nH]c(=O)oc3c2)CCN1c1ccc(C(F)(F)F)cc1 [Compound I-50]
5 nM,0.067 µM,–,Cc1cc(N2CCN(C(=O)C(=O)Nc3ccc4[nH]c(=O)oc4c3)C[C@H]2C)ccc1Cl [Compound I-41]
5 nM,0.09 µM,–,CC[C@@H]1CN(C(=O)C(=O)Nc2ccc3[nH]c(=O)oc3c2)CCN1c1ccc(Cl)cc1 [Compound I-51]
4 nM,0.056 µM,–,COc1c(F)cc(N2CCN(CC(=O)Nc3ccc4[nH]c(=O)oc4c3)C[C@H]2C)cc1F [Compound I-57]
4 nM,0.033 µM,–,C[C@@H]1CN(CC(=O)Nc2ccc3[nH]c(=O)oc3c2)CCN1c1ccc(Cl)c(F)c1 [Compound I-55]
3 nM,0.068 µM,–,Cc1ccc(N2CCN(C(=O)C(=O)Nc3ccc4[nH]c(=O)oc4c3)C[C@H]2C)cc1F [Compound I-28]
3 nM,0.024 µM,–,C[C@@H]1CN(C(=O)CNc2ccc3[nH]c(=O)oc3c2)CCN1c1ccc(Cl)c(F)c1 [Compound I-17]
2 nM,0.035 µM,–,Cc1ccc(N2CCN(C(=O)C(=O)Nc3ccc4[nH]c(=O)oc4c3)[C@H](C)C2)cc1F [Compound I-27]
